PubChem BioAssay AID1919014 (Molecular Pharmacology Branch, DTP, NCI, 2023)

Test system: NCI-H1341 complex spheroids, percent test/control
Experiment: Anticancer human tumor NCI-H1341 cell line growth inhibition [AhR];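 note: spheroids exposed to agents for seven days before readout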
Conditions: for IC50: curve of first compound; for viability, T/C: stronger effect = lower value
Source text: Multicellular complex tumor spheroid response to aryl hydrocarbon receptor antagonists in combination with a variety of drugs and investigational agents in selected tumor cell lines
The current study was undertaken to assess response to aryl hydrocarbon receptor antagonists in combination with standard-of-care drugs and investigational agents in solid tumor complex spheroid models. Complex spheroids include a stromal component modeled by human endothelial cells (HUVEC) and fibroblasts modeled by human mesenchymal stem cells (MSCs). The concentration ranges selected for each drug and investigational agent were based upon clinically achievable concentrations if the clinical Cmax of the agent was known.
Compounds. The drugs and investigational agents: BAY 2416964 (NSC825713), GNF351 (NSC835774), CH-223191 (NSC835775), CPI-455 (NSC825282), aza-TdCyd (NSC777586), decitabine (NSC127716), belinostat (NSC758774), entinostat (NSC756642), pevonedistat (NSC761192), tazemetostat (NSC777109), talazoparib (NSC765396), olaparib (NSC753686), selinexor (NSC780203), nedisertib (M3814, NSC802822), bortezomib (NSC756655), venetoclax (NSC766270), doxorubicin (NSC123127), elimusertib (BAY189344, NSC800525), ceralasertib (AZD6738, NSC777638), TAK-243 (NSC785004), alisertib (NSC759677), etoposide (NSC141540), topotecan (NSC609699), eribulin (NSC707389), gemcitabine (NSC613327), carboplatin (NSC241240), cisplatin (NSC119875), and SN-38 (NSC673596) were obtained from the National Cancer Institute (NCI) Developmental Therapeutics Program Chemical Repository (32). The FDA-approved anticancer drug set is available from the Developmental Therapeutics Program at https://dtp.cancer.gov/organization/dscb/obtaining/available plates.htm. […] The stock solutions were prepared in dimethyl sulfoxide (DMSO, Sigma-Aldrich, St. Louis, MO, cat. D2650), except for the platinum compounds which were prepared in saline (Quality Biological, Gaithersburg, MD, cat. 114-055-101), at 800-fold the tested concentration and stored at -70 degrees C prior to their use. All drugs and investigational agents were tested over a range starting from a high concentration at or near the clinical Cmax and decreasing in half-log increments. If the clinical Cmax for an agent had not been determined, the highest concentration tested was 10 microM (Table 1).
Cell Culture. All cells were maintained in an incubator at 37 degrees C and 5% CO2 with 95% humidity. The PDC lines were cultured according to standard operating procedures established by the NCI PDMR (https://pdmr.cancer.gov). Briefly, all PDCs were thawed and cultured in Matrigel-coated flasks prepared with a working solution of 1X Ham's F-12 nutrient mix, without supplementation (Invitrogen, Waltham, MA, cat. 11765054), 100 U/mL penicillin-streptomycin (Invitrogen, cat. 15140122), and 2.5% Matrigel (Corning Inc., Corning, NY, cat. 354248) for the first three passages. All PDCs were cultured in complete DMEM/F-12 media containing advanced DMEM/F-12 (Invitrogen, cat. 12634028), 4.9% defined fetal bovine serum, heat inactivated (HyClone Laboratories Inc., Logan, UT, cat. SH30070.03HI), 389 ng/mL hydrocortisone (Sigma-Aldrich, cat. H4001), 9.7 ng/mL human EGF recombinant protein (Invitrogen, cat. PHG0313), 23.4 microg/mL adenine (Sigma-Aldrich, cat. A2786), 97.3 U/mL penicillin-streptomycin (Invitrogen, cat. 15140122), 1.9 mM L-glutamine (Invitrogen, cat. 25030081), and 9.7 microM Y-27632 dihydrochloride (Tocris Bioscience, Bristol, United Kingdom, cat. 1254). The PDCs were cultured in complete DMEM/F12 media without 10 microM Y-27632 dihydrochloride for at least two passages prior to the screen. The established cell lines NCI-H1341 and […] were cultured in DMEM/F-12, HEPES (Invitrogen, cat. 11330032), 5% defined fetal bovine serum (HyClone Laboratories Inc., cat. SH30070.03), ITS premix universal culture supplement [insulin (5 microg/mL), transferrin (5 microg/mL), and selenious acid (5 ng/mL)] […]

[1] = second compound 0.1 µM, first compound 0.0316 µM
[2] = second compound 0.1 µM, first compound 0.1 µM
[3] = second compound 0.316 µM, first compound 0.0316 µM
[4] = second compound 0.316 µM, first compound 0.1 µM
[5] = second compound 1 µM, first compound 0.0316 µM
[6] = second compound 1 µM, first compound 0.1 µM
[7] = second compound 3.16 µM, first compound 0.0316 µM
[8] = second compound 3.16 µM, first compound 0.1 µM
[9] = second compound 10 µM, first compound 0.0316 µM
[10] = second compound 10 µM, first compound 0.1 µM
[11] = second compound 0.1 µM, first compound 0.316 µM
[12] = second compound 0.1 µM, first compound 1 µM
[13] = second compound 0.1 µM, first compound 3.16 µM
[14] = second compound 0.1 µM, first compound 10 µM
[15] = second compound 0.316 µM, first compound 0.316 µM
[16] = second compound 0.316 µM, first compound 1 µM
[17] = second compound 0.316 µM, first compound 3.16 µM
[18] = second compound 0.316 µM, first compound 10 µM
[19] = second compound 1 µM, first compound 0.316 µM
[20] = second compound 1 µM, first compound 1 µM
[21] = second compound 1 µM, first compound 3.16 µM
[22] = second compound 1 µM, first compound 10 µM
[23] = second compound 3.16 µM, first compound 0.316 µM
[24] = second compound 3.16 µM, first compound 1 µM
[25] = second compound 3.16 µM, first compound 3.16 µM
[26] = second compound 3.16 µM, first compound 10 µM
[27] = second compound 10 µM, first compound 0.316 µM
[28] = second compound 10 µM, first compound 1 µM
[29] = second compound 10 µM, first compound 3.16 µM
[30] = second compound 10 µM, first compound 10 µM

| SMILES | IC50 (second compound 0.1 µM) [nM] | IC50 (second compound 0.316 µM) [nM] | IC50 (second compound 1 µM) [nM] | IC50 (second compound 3.16 µM) [nM] | IC50 (second compound 10 µM) [nM] | viability, T/C [1] [%] | viability, T/C [2] [%] | viability, T/C [3] [%] | viability, T/C [4] [%] | viability, T/C [5] [%] | viability, T/C [6] [%] | viability, T/C [7] [%] | viability, T/C [8] [%] | viability, T/C [9] [%] | viability, T/C [10] [%] | viability, T/C [11] [%] | viability, T/C [12] [%] | viability, T/C [13] [%] | viability, T/C [14] [%] | viability, T/C [15] [%] | also measured |
| --- | --- | --- | --- | --- | --- | --- | --- | --- | --- | --- | --- | --- | --- | --- | --- | --- | --- | --- | --- | --- | --- |
| CC[C@@]1(O)C(=O)OCc2c1cc1n(c2=O)Cc2cc3c(CN(C)C)c(O)ccc3nc2-1 + CC(CO)NC(=O)c1cc(-c2ccc(Cl)cc2)nn(-c2cnn(C)c2)c1=O | 31.3 | 60.3 | 48.9 | 31.4 | 32.4 | 50.3 | 40.2 | 58.3 | 43.5 | 58.8 | 37.2 | 49.5 | 39.1 | 48 | 36.6 |  |  |  |  |  | viability, T/C (second compound 0.1 µM, first compound 0.000316 µM): 81.7%; viability, T/C (second compound 0.1 µM, first compound 0.001 µM): 85.1%; viability, T/C (second compound 0.1 µM, first compound 0.00316 µM): 103%; viability, T/C (second compound 0.1 µM, first compound 0.01 µM): 81.5%; viability, T/C (second compound 0.316 µM, first compound 0.000316 µM): 84.4%; viability, T/C (second compound 0.316 µM, first compound 0.001 µM): 66.2%; viability, T/C (second compound 0.316 µM, first compound 0.00316 µM): 84.6%; viability, T/C (second compound 0.316 µM, first compound 0.01 µM): 75.8%; viability, T/C (second compound 1 µM, first compound 0.000316 µM): 90.7%; viability, T/C (second compound 1 µM, first compound 0.001 µM): 84%; viability, T/C (second compound 1 µM, first compound 0.00316 µM): 65%; viability, T/C (second compound 1 µM, first compound 0.01 µM): 76.8%; viability, T/C (second compound 3.16 µM, first compound 0.000316 µM): 87.3%; viability, T/C (second compound 3.16 µM, first compound 0.001 µM): 74.8%; viability, T/C (second compound 3.16 µM, first compound 0.00316 µM): 79.2%; viability, T/C (second compound 3.16 µM, first compound 0.01 µM): 71.4%; viability, T/C (second compound 10 µM, first compound 0.000316 µM): 80.8%; viability, T/C (second compound 10 µM, first compound 0.001 µM): 77.8%; viability, T/C (second compound 10 µM, first compound 0.00316 µM): 69.2%; viability, T/C (second compound 10 µM, first compound 0.01 µM): 70.1% |
| COc1cc(C2c3cc4c(cc3C(OC3OC5COC(C)OC5C(O)C3O)C3COC(=O)C23)OCO4)cc(OC)c1O (stereo not given) + CC(CO)NC(=O)c1cc(-c2ccc(Cl)cc2)nn(-c2cnn(C)c2)c1=O | 1190 | 673 | 471 | 294 | 135 | 85.9 | 84.6 | 72.4 | 69.1 | 74.2 | 76.5 | 74.6 | 75.6 | 63.5 | 56.8 | 65.2 | 50.4 | 44.8 | 33.3 | 55.5 | viability, T/C [16]: 44.8%; viability, T/C [17]: 39.4%; viability, T/C [18]: 28.7%; viability, T/C [19]: 54.4%; viability, T/C [20]: 44.3%; viability, T/C [21]: 41.3%; viability, T/C [22]: 36.1%; viability, T/C [23]: 48.2%; viability, T/C [24]: 40.2%; viability, T/C [25]: 41.1%; viability, T/C [26]: 28.6%; viability, T/C [27]: 40.6%; viability, T/C [28]: 33.4%; viability, T/C [29]: 33.2%; viability, T/C [30]: 27.3% |
| Nc1ccn(C2OC(CO)C(O)C2(F)F)c(=O)n1 (stereo not given) + CC(CO)NC(=O)c1cc(-c2ccc(Cl)cc2)nn(-c2cnn(C)c2)c1=O | < 31.6 | < 31.6 | < 31.6 | < 31.6 | < 31.6 | 28 | 28 | 30.9 | 29.1 | 28.6 | 29.3 | 30.1 | 29.1 | 33.6 | 29.8 | 27.7 | 25.3 | 27.3 | 26.4 | 25.6 | viability, T/C [16]: 26.9%; viability, T/C [17]: 24.4%; viability, T/C [18]: 24.1%; viability, T/C [19]: 30.5%; viability, T/C [20]: 23.8%; viability, T/C [21]: 26.1%; viability, T/C [22]: 25.9%; viability, T/C [23]: 30%; viability, T/C [24]: 24%; viability, T/C [25]: 25.3%; viability, T/C [26]: 27%; viability, T/C [27]: 27.4%; viability, T/C [28]: 24.3%; viability, T/C [29]: 22.3%; viability, T/C [30]: 21.4% |
